Earlier results, collected in article PMC13575890, “Investigating substituted phenylacetamide ligands in the D4R extended binding pocket” (Bioorganic & medicinal chemistry letters, 2026).

How the values were obtained:
[1] = molecular target: T1, human D4R (Homo sapiens, UniProt P21917); design: method as in PMID 30883109; details: membranes from HEK 293 cells stably expressing hD4R; previously reported compounds; read-out: Ki (nM) ± SEM [3H]N-methylspiperone D4R
T1 construct: expressed in transfected cells
T1 sequence (P21917 1-419): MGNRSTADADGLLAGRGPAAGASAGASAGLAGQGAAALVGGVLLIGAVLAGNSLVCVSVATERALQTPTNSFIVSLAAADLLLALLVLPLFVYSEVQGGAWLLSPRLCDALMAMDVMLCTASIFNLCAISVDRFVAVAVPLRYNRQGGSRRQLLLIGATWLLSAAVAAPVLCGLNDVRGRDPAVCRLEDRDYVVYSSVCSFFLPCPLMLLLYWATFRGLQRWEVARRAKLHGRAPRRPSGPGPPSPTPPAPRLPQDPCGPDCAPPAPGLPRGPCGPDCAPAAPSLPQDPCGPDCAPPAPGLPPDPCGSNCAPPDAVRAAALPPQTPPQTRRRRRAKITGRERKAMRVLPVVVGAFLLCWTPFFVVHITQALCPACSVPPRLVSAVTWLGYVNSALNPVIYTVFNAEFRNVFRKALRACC

[2] = molecular target: T2, human D3R (Homo sapiens, UniProt P35462); design: method as in PMID 30883109; details: membranes from HEK 293 cells stably expressing hD3R; previously reported compounds; read-out: Ki (nM) ± SEM [3H]N-methylspiperone D3R
T2 construct: expressed in transfected cells
T2 sequence (P35462 whole entry): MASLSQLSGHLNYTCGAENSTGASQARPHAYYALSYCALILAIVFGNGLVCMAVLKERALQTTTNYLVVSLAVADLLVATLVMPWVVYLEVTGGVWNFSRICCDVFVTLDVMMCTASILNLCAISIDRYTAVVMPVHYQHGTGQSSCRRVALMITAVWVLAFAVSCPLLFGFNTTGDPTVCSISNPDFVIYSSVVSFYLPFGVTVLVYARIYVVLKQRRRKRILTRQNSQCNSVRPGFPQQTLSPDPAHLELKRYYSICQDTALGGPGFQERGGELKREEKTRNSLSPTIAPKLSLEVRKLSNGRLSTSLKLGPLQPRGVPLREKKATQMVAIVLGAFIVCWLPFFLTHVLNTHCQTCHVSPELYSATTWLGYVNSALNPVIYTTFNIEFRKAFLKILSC

SMILES	Ki [1]	Ki [2]
CCc1cccc(NC(=O)CN2CCN(c3ccccn3)CC2)c1 [Compound 3]	66.6 ± 1.8 nM	–
Cc1cccc(NC(=O)CN2CCN(c3ccccn3)CC2)c1 [Compound 2]	75.1 ± 0.7 nM	> 50000 nM
